Measurements published in paper PMC8686763, “Pre-Steady-State Kinetics of the SARS-CoV-2 Main Protease as a Powerful Tool for Antiviral Drug Discovery” (Frontiers in Pharmacology, 2021).

Assays:
C145A M^pro [1] = target: T1, C145A M^pro (Severe acute respiratory syndrome coronavirus 2, UniProt P0DTD1, C3408A); assay type: binding, SARS-CoV-2
C145A M^pro [2] = target: T1, C145A M^pro; assay type: binding, SARS-CoV-2; remark: listed apart in the source

## COc1cccc2[nH]c(C(=O)N[C@@H](CC(C)C)C(=O)N[C@@H](C[C@@H]3CCNC3=O)C(=O)CO)cc12 [PF-00835231]
C145A M^pro [1]
  change in Tm: ~2.2 °C
C145A M^pro [2]
  K 1 (= k 1/k −1): 0.30 ± 0.02 M⁻¹
  K 2 (= k 2/k −2): 0.35 ± 0.09
  formation of the initial complex (k 1) faster for C145A M^pro than WT: approximately 20 fold
  k 1: (6.6 ± 0.2)×10^6 M^−1×s^−1
  k 2: 1.0 ± 0.2 s⁻¹
  k -1: 22 ± 0.2 s⁻¹
  k -2: 2.8 ± 0.2 s⁻¹
